According to patent US20100317575A1, “PHARMACEUTICAL COMPOSITION COMPRISING A PYRAZOLE-O-GLUCOSIDE DERIVATIVE” (BOEHRINGER INGELHEIM INTERNATIONAL GMBH, priority 2007, published 2010):

Key:
[1] = tested on: Male Zucker Diabetic Fatty (ZDF) rats (ZDF/Crl-Lepr^fa); test: Blood glucose AUC 0-7 h on day 20 of treatment in ZDF rats; assay type: in vivo, rat
Experimental: All experimental protocols concerning the use of laboratory animals are reviewed by a federal Ethics Committee and approved by governmental authorities. […] Control animals are dosed twice daily with vehicle alone. Blood samples are obtained by tail bleed. Blood glucose is measured with a glucometer and HbA1c is measured with an automated analyzer (Cobas Integra 400, Roche). Prior to start of treatment, the animals are randomized for blood glucose and HbA1c (n=10/group). On day 20 of treatment, blood glucose is measured in tail blood pre-dose, 0.5 h, 1.5 h, 3 h, and 7 h after dosing. Blood glucose is quantified by calculating the total glucose AUC 0-7 h. The data are presented as mean±SEM. The two-sided unpaired Student t-test is used for statistical comparison of the control group and the active groups.

[2] = tested on: Male Zucker Diabetic Fatty (ZDF) rats (ZDF/Crl-Lepr^fa); test: HbA1c on day 37 of treatment in ZDF rats; assay type: in vivo, rat; settings: overnight fasted
Experimental: All experimental protocols concerning the use of laboratory animals are reviewed by a federal Ethics Committee and approved by governmental authorities. Male Zucker Diabetic Fatty (ZDF) rats (ZDF/Crl-Lepr^fa) at the age of 12 weeks are treated for 5 weeks with the pyrazole-O-glucoside (16), i.e. 4-(2-fluoro-4-methoxy-benzyl)-1-isopropyl-5-methyl-3-β-D-glucopyranos-1-yloxy-1H-pyrazole, at a dose of 10 mg/kg administered twice daily in the morning and evening, or with metformin at a dose of 200 mg/kg once daily in the morning, or with the combination of the pyrazole-O-glucoside and metformin at the same dose regimens. Vehicle for administration is 0.5% aqueous hydroxyethylcellulose containing 0.015% Polysorbat 80. Control animals are dosed twice daily with vehicle alone. Blood samples are obtained by tail bleed. Blood glucose is measured with a glucometer and HbA1c is measured with an automated analyzer (Cobas Integra 400, Roche). Prior to start of treatment, the animals are randomized for blood glucose and HbA1c (n=10/group).
On day 37 of treatment, HbA1c is measured pre-dose in tail blood obtained from overnight fasted animals. The data are presented as mean±SEM.

the diabetic = settings: metformin on its own; cited from earlier work

Row | Compound | reduction of total glucose AUC 0-7 h versus control ([1]; 10 mg/kg twice daily) | reduction of HbA1c (numerically) versus control ([2]; 10 mg/kg twice daily) | average improvement in the HbA1c value (the diabetic) | reduction of total glucose AUC 0-7 h versus control ([1]; metformin 200 mg/kg once daily) | reduction of HbA1c (numerically) versus control ([2]; metformin 200 mg/kg once daily)
1 | COc1ccc(Cc2c(O[C@@H]3O[C@H](CO)[C@@H](O)[C@H](O)[C@H]3O)nn(C(C)C)c2C)c(F)c1 [(16), 4-(2-fluoro-4-methoxy-benzyl)-1-isopropyl-5-methyl-3-β-D-glucopyranos-1-yloxy-1H-pyrazole] | 38% | 2.1% | – | – | –
2 | CN(C)C(=N)N=C(N)N [Metformin, metformin] | – | – | 1.0-1.5% | 11% | 0.3%
